Structures can show the parent of a compound that is named as a salt.
Legend:
[1] = biological target: 5HT2A (Homo sapiens, UniProt P28223); experiment: cell-based; conditions: agonist mode; read-out: EC50
[2] = biological target: Alpha1a (Homo sapiens, UniProt P35348); experiment: cell-based; conditions: read-out: IC50
[3] = biological target: CB2 (Homo sapiens, UniProt P34972); experiment: cell-based; conditions: read-out: IC50
[4] = biological target: H2 (Homo sapiens, UniProt P25021); experiment: cell-based; conditions: read-out: EC50
[5] = biological target: M3 (Homo sapiens, UniProt P20309); experiment: cell-based
[6] = biological target: M2 (Homo sapiens, UniProt P08172); experiment: cell-based
[7] = biological target: M1 (Homo sapiens, UniProt P11229); experiment: cell-based
[8] = system: RSV long; experiment: microbe, parasite or virus in culture; assay type: cell-based, respiratory syncytial virus; conditions: read-out: EC50 for Virus
[9] = in vitro
[10] = system: HCV replicon 1b; experiment: microbe, parasite or virus in culture; assay type: cell-based; conditions: Hepatitis C virus, read-out: EC50 for Virus
[11] = system: A/PR/8/34 (H1N1); set-up: species or system BALB/c mice; conditions: mouse, in vivo
[12] = system: Influenza virus A/California/07/2009 (H1N1)pdm09; experiment: microbe, parasite or virus in culture; assay type: cell-based; conditions: H1N1, MDCK, read-out: EC50 (mean ± SD)
[13] = system: Influenza virus A/California/2/2014 (H3N2); experiment: microbe, parasite or virus in culture; assay type: cell-based; conditions: H3N2, MDCK, read-out: EC50 (mean ± SD)
[14] = Cytotoxicity in MDCK cells without viral infection; conditions: dog
[15] = system: AD2; assay type: cell-based, human
[16] = system: influenza A virus WSN/33 (H1N1); set-up: species or system BALB/c mice; conditions: mouse, in vivo
[17] = biological target: T1, CCKa (Homo sapiens, UniProt P32238); experiment: cell-based; conditions: read-out: IC50
T1 sequence (P32238 1-428): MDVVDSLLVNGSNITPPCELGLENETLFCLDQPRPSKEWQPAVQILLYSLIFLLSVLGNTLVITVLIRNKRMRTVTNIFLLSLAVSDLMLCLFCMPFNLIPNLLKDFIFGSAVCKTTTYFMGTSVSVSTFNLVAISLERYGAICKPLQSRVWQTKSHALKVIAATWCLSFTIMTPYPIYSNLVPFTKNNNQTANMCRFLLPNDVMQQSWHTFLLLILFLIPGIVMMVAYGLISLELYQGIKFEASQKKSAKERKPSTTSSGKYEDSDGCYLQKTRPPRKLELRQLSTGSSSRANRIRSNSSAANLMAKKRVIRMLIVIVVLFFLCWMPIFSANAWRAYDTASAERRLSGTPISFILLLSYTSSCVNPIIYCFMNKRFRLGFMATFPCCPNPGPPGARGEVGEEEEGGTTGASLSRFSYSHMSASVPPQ

[18] = system: AD2; assay type: cell-based, human; conditions: read-out: EC50
[19] = in vitro; conditions: rhesus monkey
[20] = system: HPIV-3 C243; experiment: microbe, parasite or virus in culture; assay type: cell-based, human parainfluenza virus type 3; conditions: Human respirovirus 3, LLC-MK2, read-out: EC50 for Virus

Sequence of M3 (P20309 whole entry): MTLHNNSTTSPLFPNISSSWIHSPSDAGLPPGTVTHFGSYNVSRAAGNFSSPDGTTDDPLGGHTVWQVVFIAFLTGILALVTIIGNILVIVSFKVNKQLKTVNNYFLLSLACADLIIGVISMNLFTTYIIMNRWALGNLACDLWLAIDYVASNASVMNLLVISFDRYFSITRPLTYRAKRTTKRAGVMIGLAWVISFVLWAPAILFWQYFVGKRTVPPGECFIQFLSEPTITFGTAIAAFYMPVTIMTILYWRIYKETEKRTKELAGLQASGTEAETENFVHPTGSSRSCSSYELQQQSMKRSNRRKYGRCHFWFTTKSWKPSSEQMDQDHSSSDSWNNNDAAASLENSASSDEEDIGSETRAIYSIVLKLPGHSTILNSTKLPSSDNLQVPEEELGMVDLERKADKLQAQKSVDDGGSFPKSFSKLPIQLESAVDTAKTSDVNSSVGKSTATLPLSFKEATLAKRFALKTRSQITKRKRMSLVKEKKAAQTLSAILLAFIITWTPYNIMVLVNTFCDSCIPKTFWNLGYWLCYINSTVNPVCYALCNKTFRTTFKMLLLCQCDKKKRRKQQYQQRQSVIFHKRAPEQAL
Sequence of M2 (P08172 whole entry): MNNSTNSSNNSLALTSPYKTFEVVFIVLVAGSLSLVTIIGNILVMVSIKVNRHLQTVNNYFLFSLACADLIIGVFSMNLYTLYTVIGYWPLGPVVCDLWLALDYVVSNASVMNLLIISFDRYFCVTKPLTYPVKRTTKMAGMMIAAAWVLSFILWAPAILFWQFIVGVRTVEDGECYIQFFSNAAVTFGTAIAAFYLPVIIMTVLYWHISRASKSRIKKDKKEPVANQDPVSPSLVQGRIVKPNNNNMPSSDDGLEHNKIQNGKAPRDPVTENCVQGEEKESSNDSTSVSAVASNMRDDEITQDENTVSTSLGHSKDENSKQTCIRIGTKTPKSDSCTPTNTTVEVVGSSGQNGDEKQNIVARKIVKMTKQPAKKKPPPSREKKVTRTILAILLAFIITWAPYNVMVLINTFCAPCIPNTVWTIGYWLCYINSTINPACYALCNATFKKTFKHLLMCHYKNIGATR
Sequence of CB2 (P34972 whole entry): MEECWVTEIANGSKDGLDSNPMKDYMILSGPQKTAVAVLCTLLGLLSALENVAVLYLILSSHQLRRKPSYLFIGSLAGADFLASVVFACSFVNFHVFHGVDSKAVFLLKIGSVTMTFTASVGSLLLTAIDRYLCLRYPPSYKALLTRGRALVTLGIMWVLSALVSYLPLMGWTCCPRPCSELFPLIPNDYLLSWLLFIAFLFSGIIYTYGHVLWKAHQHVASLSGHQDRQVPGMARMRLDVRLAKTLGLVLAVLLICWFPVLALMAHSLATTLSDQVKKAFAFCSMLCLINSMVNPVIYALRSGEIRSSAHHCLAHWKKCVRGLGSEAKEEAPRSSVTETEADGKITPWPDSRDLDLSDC
Sequence of M1 (P11229 whole entry): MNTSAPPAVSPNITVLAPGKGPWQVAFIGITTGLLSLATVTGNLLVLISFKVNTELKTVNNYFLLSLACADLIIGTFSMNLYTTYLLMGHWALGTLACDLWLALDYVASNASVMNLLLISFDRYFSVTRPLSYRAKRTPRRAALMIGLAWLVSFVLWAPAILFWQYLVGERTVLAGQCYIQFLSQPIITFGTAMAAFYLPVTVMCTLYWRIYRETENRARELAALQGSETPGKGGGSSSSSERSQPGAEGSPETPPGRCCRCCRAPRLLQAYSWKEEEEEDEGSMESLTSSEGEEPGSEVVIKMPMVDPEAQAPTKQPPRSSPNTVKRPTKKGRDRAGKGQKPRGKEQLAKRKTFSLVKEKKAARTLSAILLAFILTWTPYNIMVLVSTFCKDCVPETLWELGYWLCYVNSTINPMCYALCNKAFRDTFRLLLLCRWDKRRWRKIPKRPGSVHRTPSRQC
Sequence of Alpha1a (P35348 whole entry): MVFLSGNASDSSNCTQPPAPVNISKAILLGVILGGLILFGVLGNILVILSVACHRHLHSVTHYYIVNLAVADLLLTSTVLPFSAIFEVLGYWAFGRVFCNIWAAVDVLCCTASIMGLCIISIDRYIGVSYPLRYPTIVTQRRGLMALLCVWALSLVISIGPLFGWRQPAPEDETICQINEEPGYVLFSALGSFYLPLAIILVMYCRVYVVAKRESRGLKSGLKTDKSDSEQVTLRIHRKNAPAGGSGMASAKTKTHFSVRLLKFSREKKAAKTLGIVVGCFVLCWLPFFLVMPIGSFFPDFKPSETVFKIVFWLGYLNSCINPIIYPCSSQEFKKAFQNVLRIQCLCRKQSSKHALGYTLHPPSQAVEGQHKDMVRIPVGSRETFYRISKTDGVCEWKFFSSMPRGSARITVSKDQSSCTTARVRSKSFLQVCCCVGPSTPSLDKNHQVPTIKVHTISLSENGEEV
Sequence of H2 (P25021 whole entry): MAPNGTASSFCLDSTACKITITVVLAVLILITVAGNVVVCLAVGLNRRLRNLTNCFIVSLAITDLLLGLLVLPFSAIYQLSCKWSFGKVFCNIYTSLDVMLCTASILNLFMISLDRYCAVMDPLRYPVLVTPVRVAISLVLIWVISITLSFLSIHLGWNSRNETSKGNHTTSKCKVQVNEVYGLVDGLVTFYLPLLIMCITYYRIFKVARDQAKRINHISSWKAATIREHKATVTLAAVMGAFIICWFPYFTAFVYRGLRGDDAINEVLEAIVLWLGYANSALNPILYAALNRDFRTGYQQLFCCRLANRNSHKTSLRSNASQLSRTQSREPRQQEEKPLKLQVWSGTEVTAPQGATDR
Sequence of 5HT2A (P28223 whole entry): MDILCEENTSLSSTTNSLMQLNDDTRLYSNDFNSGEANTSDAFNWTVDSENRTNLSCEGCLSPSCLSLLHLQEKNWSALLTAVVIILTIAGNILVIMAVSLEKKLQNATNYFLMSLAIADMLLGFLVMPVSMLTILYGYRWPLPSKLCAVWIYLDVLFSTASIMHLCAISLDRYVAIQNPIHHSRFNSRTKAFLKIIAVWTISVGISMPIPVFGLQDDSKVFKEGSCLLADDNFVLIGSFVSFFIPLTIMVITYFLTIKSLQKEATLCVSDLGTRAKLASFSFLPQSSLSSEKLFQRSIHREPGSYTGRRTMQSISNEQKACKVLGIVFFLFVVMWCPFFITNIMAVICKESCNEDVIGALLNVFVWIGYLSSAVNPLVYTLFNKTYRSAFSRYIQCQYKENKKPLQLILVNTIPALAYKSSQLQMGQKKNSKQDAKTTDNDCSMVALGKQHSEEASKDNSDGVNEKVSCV

In the case of NCCc1c[nH]c2ccc(C(N)=O)cc12 [5-CT, reference compound], the EC50 [1] is reported as 9.35 nM.

With COc1ccccc1N1CCN(CCCNc2c(C)c(=O)n(C)c(=O)n2C)CC1 [5-Methylurapidil, reference compound] the IC50 [2] was 3.65 nM.

Work on COc1ccc(C(=O)c2c(C)n(CCN3CCOCC3)c3cc(I)ccc23)cc1 [AM630, reference compound] yielded an IC50 [3] of 234 nM.

Cc1nc(N)sc1CCN [Amthamine dihydrobromide, reference compound] showed an EC50 [4] of 1340 nM.

Molecule C#CCOC(=O)C1=CCCN(C)C1 [Arecaidine propargyl ester, reference compound] has an EC50 [5] of 0.31 nM, an EC50 [6] of 76.2 nM and an EC50 [7] of 0.78 nM.

In the case of O=c1n(Cc2nc3ccccc3n2CCCCO)c2cnccc2n1C1CC1 [BMS-433771, reference compound], the EC50 [8] is reported as 14 nM.

Molecule COC(=O)N[C@H](C(=O)N1CCC[C@H]1c1nc(-c2ccc(-c3ccc(-c4c[nH]c([C@@H]5CCCN5C(=O)[C@@H](NC(=O)OC)C(C)C)n4)cc3)cc2)c[nH]1)C(C)C [BMS-790052, reference compound] has a CC50 [9] greater than 3 nM and an EC50 [10] of 0.021 nM.

Work on O=C1c2c(O)c(=O)ccn2N([C@@H]2c3ccccc3SCc3c2ccc(F)c3F)[C@@H]2COCCN12 [Baloxavir] yielded a mortality rate [11] of 40%, an EC50 [12] of 1.06 ± 0.22 nM and an EC50 [13] of 0.61 ± 0.02 nM. The CC50 [14] was 14.4 ± 1.52 µM.

Work on Nc1nc2ccc(Cl)cc2c2nc(-c3ccco3)nn12 [CGS-15943, reference compound] yielded an IC50 [15] of 0.11 nM.

In the case of NC(=O)c1nc(F)c[nH]c1=O [Favipiravir], the “animals died (of n = 8)” value [16] is reported as “six” and the “day on which body weight of surviving mice began to recover” value [16] is reported as 9 days.

With CCCCCN(CCCCC)C(=O)C(CCC(=O)O)NC(=O)c1ccc(Cl)c(Cl)c1 (stereo not drawn) [Lorglumide, reference compound] the IC50 [17] was 256 nM.

Work on CCNC(=O)[C@H]1O[C@@H](n2cnc3c(N)ncnc32)[C@H](O)[C@@H]1O [NECA, reference compound] yielded an EC50 [18] of 27.8 nM.

For NC(=O)c1ncn([C@@H]2O[C@H](CO)[C@@H](O)[C@H]2O)n1 [Ribavirin, reference compound], the CC50 [19] was greater than 100 µM and the EC50 [20] was 20.3 µM.

From publication PMC10056986 (Pharmaceuticals, 2023)
